According to US11377456B2, “Crystalline form of Remdesivir” (Apotex Inc., priority 2020, dated 2022):

Experiments:
[1] = Comparative intrinsic dissolution testing (Wood's apparatus); format: physicochemical; conditions: 900 mL distilled water, 37° C., 50 rpm, sample compressed at 1.5 metric tons for 1 minute
Experimental: Intrinsic dissolution rate (IDR) measurements were performed using a Wood's apparatus. Samples were prepared by compressing an amount (267 mg Form II; 258 mg APO-I) of sample at 1.5 metric tons for 1 minute. A dissolution medium consisting of 900 mL distilled water maintained at 37° C., and rotation speed of 50 rpm, was used for each experiment.

[2] = PXRD study of crystalline form stability in a 27° C./60% RH stability chamber; format: physicochemical; conditions: capped and uncapped samples, at least 5 weeks
Experimental: Remdesivir Form APO-I can be characterized by a PXRD diffractogram comprising, among other peaks, characteristic peaks, expressed in degrees 2θ (±0.2°), at 4.0°, 17.0° and 20.3°. Preferably, the PXRD diffractogram further comprises at least three peaks, expressed in degrees 2θ (±0.2°), selected from the group consisting of 10.4°, 13.0°, 14.1°, 15.3°, 17.5°, 18.3°, 22.1°, 23.9°, 25.1° and 25.9°. More preferably, the PXRD diffractogram further comprises peaks, expressed in degrees 2θ (±0.2°), at 10.4°, 13.0°, 14.1°, 15.3°, 17.5°, 18.3°, 22.1°, 23.9°, 25.1° and 25.9°.
The PXRD diffractogram was recorded on a Bruker D8 Discover powder X-ray diffractometer (Bruker-AXS, Karlsruhe, Germany). The generator was a Micro-focus X-ray source (Incoatec IμS Cu anode, λ=1.54060 Å) with a voltage of 50 kV and current of 1.00 mA. X-rays were focused with a micro mask 0.1 mm plug-in microslit. One frame was collected using a still scan with a PILATUS3 R 100K-A detector at the distance of 154.72 mm from the sample. Raw data was evaluated using the program EVA (Bruker-AXS, Karlsruhe, Germany).

| SMILES | Intrinsic Dissolution Rate [1] | Change in crystalline form by PXRD (polymorphic stability) [2] |
| --- | --- | --- |
| CCC(CC)COC(=O)[C@H](C)N[P@](=O)(OC[C@H]1O[C@@](C#N)(c2ccc3c(N)ncnn23)[C@H](O)[C@@H]1O)Oc1ccccc1 [Remdesivir Form APO-I] | 0.013 mg min^−1 cm^−2 | no change in the crystalline form occurred |
| CCC(CC)COC(=O)[C@H](C)N[P@](=O)(OC[C@H]1O[C@@](C#N)(c2ccc3c(N)ncnn23)[C@H](O)[C@@H]1O)Oc1ccccc1 [Remdesivir Form II, reference compound] | 0.0083 mg min^−1 cm^−2 |  |
